Assay results reported in patent publication US8849577B2, “Methods of identifying biochemical pathways” (Metabolon, Inc., priority 2006, dated 2014).
Entries after “also recorded” stand apart in the source; their conditions may differ.

How the values were obtained:
Format in all cases: cell-based, human
[1] = tested on: adipocyte cells; assay: Metabolomic analysis of test compounds in adipocyte cultures; conditions: Primary Adipocytes, 30 μM, vs DMSO; for number of compounds affected, # decreased / number of compounds affected, # increased: p < 0.01
Method: (§1) The cell cultures used in this example were performed according to standard protocols with the cells in 10% FCS. […] The adipocytes were human and fully differentiated.
(§2) The target of the agent is not present in the cell cultures assayed, thus the changed compounds for each culture represent off-target effects, and therefore, the number of changed compounds can be used to generate a score that can be used as one criteria to rank the test compounds.

[2] = tested on: HepG2; assay: Metabolomic analysis of test compounds in HepG2 (hepatocyte) cultures; conditions: Hepatocytes, 30 μM, vs DMSO; for number of compounds affected, # decreased / number of compounds affected, # increased: p < 0.01
Method: as §1, §2

[3] = tested on: preadipocyte cells; assay: Comparative metabolomic analysis of PPAR activators in preadipocyte cells; conditions: 3 hours treatment
Method: The cell used in this assay were preadipocyte cells from a human with a BMI of 23.29. The cells were plated at 1 million per well in 6-well plates. Eight cultures were used for each experimental group. The cells were washed with basal medium (1 ml/well) and treated with compounds in 1 ml of basal medium for 3 hours. After treatment, the cells were then washed with PBS (1 ml), two times and then trypsinized with 300 μl for 5 minutes at 37 degrees. One ml of PM-1 was then added per well to neutralized the trypsin and the cells were collected in 1.5 ml eppendorf tube. The cells were then pelleted by centrifugation (280×g) and the pellets were washed with PBS (1 ml). The cell pellets were then frozen at −80 degrees.

| SMILES | Ratio Drug/DMSO: 3-phospho-I-serine [3] | Ratio Drug/DMSO: Isobar-17-includes-arginine-N-alpha-acetyl-ornithine [3] | Ratio Drug/DMSO: Isobar-22-includes-glutamic acid-O-acetyl-L-serine [3] | Ratio Drug/DMSO: Isobar-28-includes-L-threonine-L-allothreonine-L-homoserine [3] | Ratio Drug/DMSO: L-alpha-glycerophosphorylcholine [3] | Ratio Drug/DMSO: N-acetyl-D-galactosamine [3] | Ratio Drug/DMSO: adenosine-5-monophosphate [3] | Ratio Drug/DMSO: alanine [3] | Ratio Drug/DMSO: carnitine [3] | Ratio Drug/DMSO: citric acid [3] | Ratio Drug/DMSO: gly-gly [3] | Ratio Drug/DMSO: glycerol [3] | Ratio Drug/DMSO: guanosine [3] | Ratio Drug/DMSO: hypoxanthine [3] | Ratio Drug/DMSO: inosine [3] | Ratio Drug/DMSO: n-hexadecanoic acid [3] | Ratio Drug/DMSO: octadecanoic acid [3] | Ratio Drug/DMSO: pantothenic acid [3] | Ratio Drug/DMSO: phosphoenolpyruvate [3] | Ratio Drug/DMSO: serine [3] | further results |
| --- | --- | --- | --- | --- | --- | --- | --- | --- | --- | --- | --- | --- | --- | --- | --- | --- | --- | --- | --- | --- | --- |
| COC(=O)N[C@H](C(=O)N[C@@H](Cc1ccccc1)[C@@H](O)CN(Cc1ccc(-c2ccccn2)cc1)NC(=O)[C@@H](NC(=O)OC)C(C)(C)C)C(C)(C)C [ATV] |  |  |  |  |  |  |  |  |  |  |  |  |  |  |  |  |  |  |  |  | number of compounds affected, Total p < 0.01 [1]: 87; number of compounds affected, # decreased [1]: 55; number of compounds affected, # increased [1]: 32; number of compounds affected, Total p < 0.01 [2]: 71; number of compounds affected, # decreased [2]: 55; number of compounds affected, # increased [2]: 16 |
| CC1(COc2ccc(CC3SC(=O)NC3=O)cc2)CCCCC1 (stereo not shown) [Ciglitazone] | 0.91 | 0.87 | 0.99 | 0.72 | 1.81 | 0.36 | 1.09 | 0.91 | 0.90 | 0.86 | 1.36 | 0.93 | 1.55 | 1.76 | 2.25 | 1.05 | 1.05 | 1.10 | 0.76 | 0.98 | Ratio Drug/DMSO: aspartate [3]: 1.29; Ratio Drug/DMSO: gamma-L-glutamyl-L-glutamin [3]: 0.73; Ratio Drug/DMSO: glutamine [3]: 0.78; Ratio Drug/DMSO: o-phosphoethanolamine [3]: 5.42; Ratio Drug/DMSO: oxidized-glutathione [3]: 0.77; Ratio Drug/DMSO: sn-glycerol-3-phosphate [3]: 1.53; Ratio Drug/DMSO: threonine [3]: 0.84; Ratio Drug/DMSO: tryptophan [3]: 0.91 |
| CC(C)(Sc1ccc(CCN(CCCCC2CCCCC2)C(=O)NC2CCCCC2)cc1)C(=O)O [GW7647] | 0.89 | 0.97 | 0.86 | 0.82 | 1.31 | 0.98 | 1.41 | 0.95 | 0.83 | 1.06 | 1.12 | 1.14 | 1.22 | 1.89 | 1.89 | 1.02 | 1.02 | 0.96 | 0.91 | 1.05 | Ratio Drug/DMSO: sn-glycerol-3-phosphate [3]: 1.43; Ratio Drug/DMSO: tryptophan [3]: 1.06; metabolite change relative to DMSO control [3]: increase in glycerol; also recorded: more carnitine is being utilized to shuffle FA into the mitochondria and hence, levels decrease |
| Cc1cccc(C)c1OCC(=O)N[C@@H](Cc1ccccc1)[C@@H](O)C[C@H](Cc1ccccc1)NC(=O)[C@H](C(C)C)N1CCCNC1=O [LPV] |  |  |  |  |  |  |  |  |  |  |  |  |  |  |  |  |  |  |  |  | number of compounds affected, Total p < 0.01 [1]: 99; number of compounds affected, # decreased [1]: 46; number of compounds affected, # increased [1]: 53; number of compounds affected, Total p < 0.01 [2]: 131; number of compounds affected, # decreased [2]: 27; number of compounds affected, # increased [2]: 104 |
| Cc1c(C)c2c(c(C)c1O)CCC(C)(COc1ccc(CC3SC(=O)NC3=O)cc1)O2 (stereo not shown) [Troglitazone, troglitazone] | 0.77 | 0.82 | 0.92 | 0.63 | 1.24 | 0.91 | 0.95 | 0.86 | 0.92 | 0.77 | 1.42 | 1.08 | 0.98 | 1.63 | 1.58 | 1.17 | 1.18 | 1.33 | 0.85 | 0.86 | Ratio Drug/DMSO: aspartate [3]: 2.06; Ratio Drug/DMSO: gamma-L-glutamyl-L-glutamin [3]: 0.64; Ratio Drug/DMSO: glutamine [3]: 0.76; Ratio Drug/DMSO: o-phosphoethanolamine [3]: 1.50; Ratio Drug/DMSO: oxidized-glutathione [3]: 0.77; Ratio Drug/DMSO: sn-glycerol-3-phosphate [3]: 1.42; Ratio Drug/DMSO: threonine [3]: 0.83; Ratio Drug/DMSO: tryptophan [3]: 0.98 |
